Experimental findings from US10093656B2, “Fused-ring or tricyclic aryl pyrimidine compound used as kinase inhibitor” (NANJING SANHOME PHARMACEUTICAL CO., LTD, priority 2015, dated 2018) are described below.

Molecules are shown by their SMILES.

For test [1], the system named is NCI-H1975 lung cancer patient-derived xenograft (CDX). Briefly: Pharmacodynamics study in vivo, NCI-H1975 xenograft (CDX) model. Particulars: AZD9291 5 mg/kg; for Tumor Volume (mm^3) 4 days: day 4, oral daily: compound 30 10 mg/kg, 33, 34, 40, 42, 43 20 mg/kg; for Tumor Volume (mm^3) 7 days: day 7, oral daily: compound 30 10 mg/kg, 33, 34, 40, 42, 43 20 mg/kg; for Tumor Volume (mm^3) 11 days: day 11, oral daily: compound 30 10 mg/kg, 33, 34, 40, 42, 43 20 mg/kg; for Tumor Volume (mm^3) 14 days: day 14, oral daily: compound 30 10 mg/kg, 33, 34, 40, 42, 43 20 mg/kg; for Tumor Volume (mm^3) 18 days: day 18, oral daily: compound 30 10 mg/kg, 33, 34, 40, 42, 43 20 mg/kg. Also noted: species or system BALB/c nude mice. The procedure: (§1) For example, after 21 days of administration, the tumor volume of the representative compounds 30, 33, 34, 40, 42 and 43 decreased from the beginning of about 149 mm^3 to 3-39 mm^3.
(§2) The pharmacological experiments in vivo were performed on BALB/c nude mice that subcutaneously implanted NCI-H1975 lung cancer […] xenograft (CDX).
(§3) BALB/c nude mice, female, 6-8 weeks, weighted about 18-22 grams, the mice were kept in a special pathogen-free environment, and in a single ventilation cage (5 mice per cage). The bedding and water of all the cages were disinfected before use. All animals were free to obtain standard certified commercial laboratory diets. A total of 100 mice were purchased from Beijing Vital for research. The tumor tissue (20-30 mm^3) was implanted subcutaneously in the […] of each mouse for tumor growth. The experiment was started when the average tumor volume reached about 150-200 mm^3. The test compound was orally administered daily (compound 30 was administered at 10 mg/kg, compound 33, 34, 40, 42 and 43 were administered at 20 mg/kg and compound AZD9291 was administered continuously for 21 days at 5 mg/kg, the data were shown in Table 3). The tumor volume was measured twice a week with a two-dimensional caliper and the volume was measured in cubic millimeters and calculated by the following formula: V=V=0.5 a×b2, where a and b were the major and minor diameters of the tumor, respectively.

Test [2] concerns NCI-H1975 lung cancer xenograft (CDX). Described as above. Further details: species or system BALB/c nude mice. The conditions noted are these: day 0, oral daily: compound 30 10 mg/kg, 33, 34, 40, 42, 43 20 mg/kg, AZD9291 5 mg/kg. The procedure: as §1, §2, §3
Test [3] deals with human skin squamous cell A431 xenograft (CDX). The test can be described thus: Selectivity study in vivo, A431 xenograft (CDX) model. Further details: species or system BALB/c nude mice. The conditions noted are these: Table 5 experiment, AZD9291 5 mg/kg. The procedure: In this model, the less inhibitory effect on the tumor, the better the selectivity in vivo.
The selective experiments in vivo were performed on BALB/c nude mice that subcutaneously implanted human skin squamous cell A431 xenograft (CDX).
BALB/c nude mice, female, 6-8 weeks, weighted about 18-20 grams, the mice were kept in a special pathogen-free environment and in a single ventilation cage (5 mice per cage). The bedding and water of all the cages were disinfected before use. All animals were free to obtain standard certified commercial laboratory diets. All mice were purchased from mice of Shanghai BK Laboratory Animal Co., LTD for research. The tumor tissue (20-30 mm^3) was implanted subcutaneously in the […] of each mouse for tumor growth. The experiment was started when the average tumor volume reached about 150-200 mm^3. The test compound was orally administered (compounds 17, 30, 37 and 38 were administered once daily at 20 mg/kg, the compound AZD9291 was administered once daily at 5 mg/kg, the compound CO-1686 was administered twice daily at 50 mg/kg, the compound Erlotinib was administered once daily at 75 mg/kg and the compound Afatinib was administered once daily at 7.5 mg/kg, 21 days of continuous administration. The data were shown in Table 4; compounds 33, 34, 40, 42 and 43 were administered once daily at 20 mg/kg and compound AZD9291 was administered once daily at5 mg/kg, 21 days of continuous administration. The tumor volume was measured twice a week with a two-dimensional caliper and the volume was measured in cubic millimeters and calculated by the following formula: V=V=0.5 a×b2, where a and b were the major and minor diameters of the tumor, respectively.

Test [4] concerns the target T1, EGFR wild type (Homo sapiens, UniProt P00533).
T1 construct: purchased Life technology (Madison, Wis.)
Briefly: Wild-type EGFR enzyme HTRF inhibition assay. Particulars: 25 μM ATP, read-out: EGFR WT IC50. The test is classed as biochemical. In short, it runs like this:
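HTRF with 0.05 nM wild-type EGFR, 1 μM biotin-TK1 peptide, 25 μM ATP, 60 min at 23° C; detected with Eu-anti-TK1 antibody 2 nM and XL665 62.5 nM, 60 min at 23° C. Ten 3-fold doses, 300 nM to 0.015 nM final; IC50 by four-parameter fit of % inhibition.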
For orientation: TR-FRET usually uses a lanthanide donor and a delayed reading to cut background.

The target in test [5] is T2, EGFR T790M/L858R (Homo sapiens, UniProt P00533, L858R/T790M).
T2 construct: purchased Life technology (Madison, Wis.)
Briefly: EGFR T790M/L858R enzyme HTRF inhibition assay. The test is classed as biochemical. The conditions noted are these: 20 μM ATP, read-out: EGFR L858R/T79M IC50. An outline of the steps:
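HTRF assay with 0.04 nM enzyme, 1 μM biotin-TK1 peptide and 20 μM ATP, 60 min at 23° C. Product detected with Eu-anti-TK1 antibody/XL665 (60 min at 23° C); compound at 10 doses, 300 nM to 0.015 nM final. IC50 from four-parameter fit.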

For test [6], the target named is T3, EGFR d746-750/T790M (Homo sapiens, UniProt P00533, DEL746-750/T790M).
T3 construct: purchased Carna Biosciences (Japan)
The test can be described thus: EGFR d746-750/T790M enzyme HTRF inhibition assay. The test is classed as biochemical. The conditions noted are these: 40 μM ATP. An outline of the steps: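 0.025 nM enzyme with 1 μM biotin-TK1 peptide and 40 μM ATP, 60 min at 23° C; compound tested at 10 doses, 300 nM to 0.015 nM final. HTRF read (Eu-anti-TK1 antibody 2 nM, XL665 62.5 nM, 60 min at 23° C); IC50 from four-parameter fit of % inhibition.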

The subject of test [7] is NCI-H1975 cells EGFR L858R/T790M. Briefly: NCI-H1975 cell viability assay (Cell Titer-Glo, 6 days). The conditions noted are these: Homo sapiens, 144 h. The test is classed as cell-based. In short, it runs like this:
(§4)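 A431 (EGFR WT) and NCI-H1975 (EGFR L858R/T790M) cells treated for 6 days at 37° C, in duplicate with 10 three-fold doses from 10 μM to 0.508 nM final. Viability read as CellTiter-Glo luminescence. IC50 from four-parameter fit of % inhibition.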

Test [8] concerns A431 cells EGFR WT. Briefly: A431 cell viability assay (Cell Titer-Glo, 6 days). Particulars: for IC50: Homo sapiens, A-431, 144 h, A431 cells, 6 days; for A431:NCI-H1975 (ratio): ratio of cell IC50 A431 to NCI-H1975. The test is classed as cell-based, human. An outline of the steps:
as §4

The target of test [9] is T4, INSR (Homo sapiens, UniProt P06213).
T4 construct: purchased Life technology (Madison, Wis.)
Briefly: INSR enzyme HTRF inhibition assay. The test is classed as biochemical. Particulars: 35 μM ATP, read-out: INSR_IC50. The procedure:
Enzyme: EGFR wild type, EGFR T790M/L858R, EGFR T790M and INSR were purchased from Life technology (Madison, Wis.), EGFR d746-750/T790M was purchased from Carna Biosciences (Japan).
HTRF Kit was purchased from Cis-Bio International which contained the Eu-labeled TK1 antibody, XL665 and biotin-labeled TK1 polypeptide substrates.
Detecting instrument: Envision (PerkinElmer).
The test compound was diluted 3-fold to obtain 10 doses of which the final concentration was from 300 nM to 0.015 nM.
INSR Enzyme Reaction Mixture System:
0.5 nM INSR, 1 μM biotin-TK1 peptide, 35 μM ATP enzyme buffer, a total of which was 10 μL. The reaction plate was white Proxiplate 384-Plus plate (PerkinElmer) and the mixture was reacted at 23° C. for 60 minutes.
Reaction Detection: 10 μL of detection reagent containing Antibody 2 nM and XL665 62.5 nM was added, and the reagent was incubated at 23° C. for 60 minutes. The plates were read by Envision.
The reading is converted to the suppression rate (%) by the following formula […]/(Max-Min)*100%. IC50 Data was measured by four-parameter curve fitting (Model 205 in XLFITS, IDBS).

T2 sequence (P00533 25-1210 T790M/L858R): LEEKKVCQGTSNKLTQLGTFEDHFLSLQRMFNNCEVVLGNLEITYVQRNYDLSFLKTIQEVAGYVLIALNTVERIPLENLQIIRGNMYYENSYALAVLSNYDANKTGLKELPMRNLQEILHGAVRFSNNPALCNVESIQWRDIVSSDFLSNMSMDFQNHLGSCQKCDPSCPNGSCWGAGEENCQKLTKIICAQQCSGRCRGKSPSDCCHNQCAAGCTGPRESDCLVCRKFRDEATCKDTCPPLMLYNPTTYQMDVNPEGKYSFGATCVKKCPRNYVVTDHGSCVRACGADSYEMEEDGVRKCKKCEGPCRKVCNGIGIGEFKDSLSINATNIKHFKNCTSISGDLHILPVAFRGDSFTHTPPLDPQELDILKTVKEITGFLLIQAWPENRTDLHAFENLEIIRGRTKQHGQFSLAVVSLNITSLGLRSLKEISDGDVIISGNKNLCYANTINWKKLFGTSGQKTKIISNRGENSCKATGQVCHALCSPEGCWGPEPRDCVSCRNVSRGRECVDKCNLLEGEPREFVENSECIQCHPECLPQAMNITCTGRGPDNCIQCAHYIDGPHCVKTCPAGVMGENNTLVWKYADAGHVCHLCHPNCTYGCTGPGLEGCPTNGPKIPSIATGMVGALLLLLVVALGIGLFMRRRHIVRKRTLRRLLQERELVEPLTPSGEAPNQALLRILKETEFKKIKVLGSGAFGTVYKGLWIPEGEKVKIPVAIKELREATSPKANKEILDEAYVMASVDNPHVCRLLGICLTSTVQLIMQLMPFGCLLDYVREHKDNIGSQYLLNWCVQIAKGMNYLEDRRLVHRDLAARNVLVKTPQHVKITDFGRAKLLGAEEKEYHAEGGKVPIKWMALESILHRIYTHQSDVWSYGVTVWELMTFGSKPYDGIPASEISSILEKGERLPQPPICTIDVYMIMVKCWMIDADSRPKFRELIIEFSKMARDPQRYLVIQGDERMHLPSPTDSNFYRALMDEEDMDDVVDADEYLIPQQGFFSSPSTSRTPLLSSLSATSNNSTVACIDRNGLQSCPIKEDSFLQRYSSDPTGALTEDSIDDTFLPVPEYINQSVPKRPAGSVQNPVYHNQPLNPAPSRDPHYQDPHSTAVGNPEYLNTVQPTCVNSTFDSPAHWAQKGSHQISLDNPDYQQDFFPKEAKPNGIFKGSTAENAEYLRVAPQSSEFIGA
T1 sequence (P00533 25-1210): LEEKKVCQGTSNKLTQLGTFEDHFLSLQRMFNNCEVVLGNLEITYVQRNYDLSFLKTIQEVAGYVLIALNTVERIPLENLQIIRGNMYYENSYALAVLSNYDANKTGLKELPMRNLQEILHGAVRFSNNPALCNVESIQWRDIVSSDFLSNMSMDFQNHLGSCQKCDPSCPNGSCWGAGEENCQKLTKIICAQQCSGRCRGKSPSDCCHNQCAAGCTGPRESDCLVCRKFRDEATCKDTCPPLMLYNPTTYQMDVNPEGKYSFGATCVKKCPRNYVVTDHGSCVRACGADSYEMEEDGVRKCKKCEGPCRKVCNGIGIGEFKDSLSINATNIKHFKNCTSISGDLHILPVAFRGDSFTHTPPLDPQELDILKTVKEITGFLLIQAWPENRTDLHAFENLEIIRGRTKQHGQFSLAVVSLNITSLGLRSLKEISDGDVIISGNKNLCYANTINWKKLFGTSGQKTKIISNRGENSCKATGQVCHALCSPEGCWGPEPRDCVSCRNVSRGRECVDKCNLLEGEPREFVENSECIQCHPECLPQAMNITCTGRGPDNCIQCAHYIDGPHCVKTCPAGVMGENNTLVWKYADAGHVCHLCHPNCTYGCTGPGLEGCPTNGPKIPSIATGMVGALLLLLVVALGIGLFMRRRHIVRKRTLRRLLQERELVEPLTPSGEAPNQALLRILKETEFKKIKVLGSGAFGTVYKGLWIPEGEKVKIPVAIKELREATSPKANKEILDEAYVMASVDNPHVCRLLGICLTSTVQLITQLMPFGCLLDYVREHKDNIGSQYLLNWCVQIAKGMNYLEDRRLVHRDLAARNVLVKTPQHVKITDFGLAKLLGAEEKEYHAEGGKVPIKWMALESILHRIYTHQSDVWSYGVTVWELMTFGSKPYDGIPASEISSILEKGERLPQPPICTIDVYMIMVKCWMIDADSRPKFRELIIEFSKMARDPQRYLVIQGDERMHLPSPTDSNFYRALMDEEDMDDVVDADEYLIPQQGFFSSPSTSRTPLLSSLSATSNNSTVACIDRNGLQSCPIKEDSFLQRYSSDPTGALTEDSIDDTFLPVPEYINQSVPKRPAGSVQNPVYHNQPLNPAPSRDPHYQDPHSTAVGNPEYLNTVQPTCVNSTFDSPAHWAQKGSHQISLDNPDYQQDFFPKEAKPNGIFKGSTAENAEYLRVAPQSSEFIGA
T3 sequence (P00533 with tags, fused parts or gaps DEL746-750/T790M limits assumed): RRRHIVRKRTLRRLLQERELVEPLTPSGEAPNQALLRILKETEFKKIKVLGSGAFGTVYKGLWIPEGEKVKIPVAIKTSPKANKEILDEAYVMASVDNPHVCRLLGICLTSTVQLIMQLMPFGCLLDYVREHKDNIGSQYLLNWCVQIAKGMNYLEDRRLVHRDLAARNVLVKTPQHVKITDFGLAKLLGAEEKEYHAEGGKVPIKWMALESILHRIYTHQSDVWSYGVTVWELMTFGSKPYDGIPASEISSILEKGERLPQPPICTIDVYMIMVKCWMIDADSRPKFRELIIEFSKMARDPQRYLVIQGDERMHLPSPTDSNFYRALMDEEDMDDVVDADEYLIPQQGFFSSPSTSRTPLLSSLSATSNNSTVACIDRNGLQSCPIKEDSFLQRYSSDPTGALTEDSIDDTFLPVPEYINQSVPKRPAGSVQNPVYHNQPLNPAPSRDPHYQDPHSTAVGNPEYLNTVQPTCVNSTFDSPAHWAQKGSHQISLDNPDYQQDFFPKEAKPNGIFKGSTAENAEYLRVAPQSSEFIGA
T4 sequence (P06213 28-1382): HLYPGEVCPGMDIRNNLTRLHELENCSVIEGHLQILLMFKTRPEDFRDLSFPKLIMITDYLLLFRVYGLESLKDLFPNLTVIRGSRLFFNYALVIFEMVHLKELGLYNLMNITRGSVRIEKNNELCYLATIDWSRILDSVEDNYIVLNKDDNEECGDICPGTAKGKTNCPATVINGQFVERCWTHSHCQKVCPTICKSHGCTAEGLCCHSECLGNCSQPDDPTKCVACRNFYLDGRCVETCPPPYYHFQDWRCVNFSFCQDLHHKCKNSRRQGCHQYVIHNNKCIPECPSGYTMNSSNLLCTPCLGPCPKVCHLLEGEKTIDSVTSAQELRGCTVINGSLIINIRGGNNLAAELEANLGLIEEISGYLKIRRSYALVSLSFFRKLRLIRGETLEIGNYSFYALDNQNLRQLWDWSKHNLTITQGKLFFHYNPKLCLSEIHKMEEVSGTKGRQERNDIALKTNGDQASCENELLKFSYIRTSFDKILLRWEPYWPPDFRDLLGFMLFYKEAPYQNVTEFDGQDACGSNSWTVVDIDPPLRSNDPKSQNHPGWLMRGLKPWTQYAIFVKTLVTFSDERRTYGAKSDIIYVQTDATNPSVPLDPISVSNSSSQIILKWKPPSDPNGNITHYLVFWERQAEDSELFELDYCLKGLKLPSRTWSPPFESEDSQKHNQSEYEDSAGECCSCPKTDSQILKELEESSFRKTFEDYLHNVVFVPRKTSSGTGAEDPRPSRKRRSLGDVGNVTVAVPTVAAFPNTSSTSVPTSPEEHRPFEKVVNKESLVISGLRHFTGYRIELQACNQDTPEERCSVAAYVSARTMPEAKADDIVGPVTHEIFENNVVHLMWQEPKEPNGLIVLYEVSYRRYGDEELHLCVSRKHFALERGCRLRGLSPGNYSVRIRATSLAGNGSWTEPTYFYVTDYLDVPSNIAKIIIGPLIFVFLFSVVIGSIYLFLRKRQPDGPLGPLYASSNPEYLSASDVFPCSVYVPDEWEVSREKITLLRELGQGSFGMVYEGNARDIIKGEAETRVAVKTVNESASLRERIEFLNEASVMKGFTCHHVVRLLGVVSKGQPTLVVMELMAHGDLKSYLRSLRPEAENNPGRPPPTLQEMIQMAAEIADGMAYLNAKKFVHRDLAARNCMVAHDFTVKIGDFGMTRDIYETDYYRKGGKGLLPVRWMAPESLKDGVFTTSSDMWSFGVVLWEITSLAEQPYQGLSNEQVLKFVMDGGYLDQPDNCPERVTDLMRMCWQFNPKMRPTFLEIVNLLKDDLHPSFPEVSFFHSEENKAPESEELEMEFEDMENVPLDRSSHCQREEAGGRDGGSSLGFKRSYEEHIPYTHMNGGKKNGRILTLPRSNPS

Regarding `C=CC(=O)Nc1cc(Nc2nccc(-c3cn(C)c4ccccc34)n2)c(OC)cc1N(C)CCN(C)C` [AZD9291, reference compound], in test [1], the “Tumor Volume (mm^3) 4 days” value is 86 mm^3, the “Tumor Volume (mm^3) 7 days” value was found to be 64 mm^3, the “Tumor Volume (mm^3) 11 days” value came out at 52 mm^3 and the “Tumor Volume (mm^3) 14 days” value is 66 mm^3. The “Tumor Volume (mm^3) 18 days” value in test [1] is on record as 25 mm^3. Moreover, the “Tumor Volume (mm^3) 21 days” value in [1] (day 21, oral daily: compound 30 10 mg/kg, 33, 34, 40, 42, 43 20 mg/kg) came to 15 mm^3. Besides, the “Tumor Volume (mm^3) 0 day” value in test [2] was found to be 149 mm^3. The “Tumor Volume (mm^3) 4 days” value in test [3] (day 4, oral once daily: 33, 34, 40, 42, 43 20 mg/kg) is recorded as 153 mm^3. In test [3] (day 11, oral once daily: 33, 34, 40, 42, 43 20 mg/kg), the “Tumor Volume (mm^3) 11 days” value was determined as 219 mm^3. Moreover, the “Tumor Volume (mm^3) 18 days” value in test [3] (day 18, oral once daily: 33, 34, 40, 42, 43 20 mg/kg) stood at 330 mm^3.
Regarding `C=CC(=O)Nc1cc(Nc2nccc(-c3c4n(c5ccccc35)CCOC4)n2)c(OC)cc1N(C)CC(C)(C)N(C)C` [Embodiment 25, N-(5-((4-(3,4-Dihydro-1H-[1,4]oxazino[4,3-a]indol-10-yl)pyrimidin-2-yl)amino)-2-((2-(dimethylamino)-2-methylpropyl)(methyl)amino)-4-methoxyphenyl)acrylamide], the IC50 in test [4] was determined as 0.81 nM; in test [5], 0.2 nM; in [6] it was 0.13 nM; in test [7] it was 4 nM; in [8], 248 nM; in [9], 333 nM. The “A431:NCI-H1975 (ratio)” value in test [8] is reported as 62.
With `C=CC(=O)Nc1cc(Nc2nccc(-c3c4n(c5ccccc35)CCOC4)n2)c(OC)cc1N(C)CCNC` [Embodiment 27, N-(5-((4-(3,4-Dihydro-1H-[1,4]oxazino[4,3-a]indol-10-yl)pyrimidin-2-yl)amino)-4-methoxy-2-(methyl(2-(methylamino)ethyl)amino)phenyl)acrylamide], the IC50 in [4] was found to be 1.7 nM; in [5], 0.21 nM; in test [6], 0.19 nM; in test [7], 5 nM; in [8], 485 nM; in [9] it was 570 nM. Further, the “A431:NCI-H1975 (ratio)” value in [8] is 97.
Turning to `C=CC(=O)Nc1cc(Nc2ncc(F)c(-c3c4n(c5ccccc35)CCOC4)n2)c(OC)cc1N(C)CCN(C)C` [Embodiment 30, N-(5-((4-(3,4-Dihydro-1H-[1,4]oxazino[4,3-a]indol-10-yl)-5-fluoropyrimidin-2-yl)amino)-2-((2-(dimethylamino)ethyl)(methyl)amino)-4-methoxyphenyl)acrylamide], the IC50 in [4] was 0.8 nM; in [5] it was 0.14 nM; in [6], 0.16 nM; in [7] it was 15 nM; in test [8], 823 nM; in [9], 393 nM. Further, the “A431:NCI-H1975 (ratio)” value in test [8] was found to be 55. For the same compound, the “Tumor Volume (mm^3) 4 days” value in [1] was determined as 115 mm^3. Moreover, the “Tumor Volume (mm^3) 7 days” value in test [1] stood at 90 mm^3. In addition, in [1], the “Tumor Volume (mm^3) 11 days” value is recorded as 48 mm^3. In addition, the “Tumor Volume (mm^3) 14 days” value in [1] worked out at 34 mm^3. For the same compound, the “Tumor Volume (mm^3) 18 days” value in [1] amounted to 22 mm^3.
As to `C=CC(=O)Nc1cc(Nc2nccc(-c3c4n(c5ccc(F)cc35)CCOC4)n2)c(OC)cc1N(C)CCN(C)C` [Embodiment 37, N-(2-((2-(Dimethylamino)ethyl)(methyl)amino)-5-((4-(8-fluoro-3,4-dihydro-1H-[1,4]oxazino[4,3-a]indol-10-yl)pyrimidin-2-yl)amino)-4-methoxyphenyl)acrylamide], the IC50 in [4] turned out to be 0.35 nM; in test [5], 0.1 nM; in test [6] it was 0.1 nM; in test [7], 12.5 nM; in test [8], 303 nM; in [9], 440 nM. The “A431:NCI-H1975 (ratio)” value in test [8] came out at 24.
With `C=CC(=O)Nc1cc(Nc2nccc(-c3c4n(c5cc(F)ccc35)CCOC4)n2)c(OC)cc1N(C)CCN(C)C` [Embodiment 38, N-(2-((2-(Dimethylamino)ethyl)(methyl)amino)-5-((4-(7-fluoro-3,4-dihydro-1H-[1,4]oxazino[4,3-a]indol-10-yl)pyrimidin-2-yl)amino)-4-methoxyphenyl)acrylamide], the IC50 in test [4] is 0.6 nM; in test [5] it was 0.09 nM; in [6], 0.1 nM; in [7], 7 nM; in test [8] it was 317 nM; in test [9] it was 310 nM. Further, the “A431:NCI-H1975 (ratio)” value in test [8] was determined as 45.
